{"source": "patent US20100166804A1", "about": "“METHODS” (priority 2007, published 2010)", "key": {"[1]": {"system": "patients with a history of peanut allergy", "assay": "Double-blind randomized dose-ranging oral food challenge with peanut flour (Example 3)", "type": "in vivo", "settings": "0.5, 1 or 2 mg ketotifen orally twice daily vs placebo; oral food challenge at two, four and six weeks", "protocol": "(§1) To analyze hypersensitivity to peanut, a double-blind, randomized, dose-ranging study is carried out with patients with a history of peanut allergy manifested by urticaria, angioedema, respiratory tract symptoms or hypotension generally using the methods described in Israel et al., Am. J. Respir. Crit. Care Med., (2000) 164:75-80. Eligible patients include those with serum total IgE level of 30-1000 IU/mL and/or a positive skin-prick test to peanut. Patients must have asthma condition under control with a forced expiratory volume in one second that is at least 80 percent of the predicted value. Patients may not take systemic corticosteroids, beta-blockers, acetylcholinesterase, aspirin, antihistamines and anti-depressants during the study.\n(§2) Before enrollment, threshold level for reactivity to peanut allergen is confirmed by a screening double-blind, placebo-controlled oral food challenge. Base line spirometry, peak expiratory flow rates and continuous cardiac monitoring is established. Vital signs are checked, chest auscultation is performed, and peak expiratory flow rates are monitored every 30 minutes during the food challenge and for at least 2 hours after the last dose or the abatement of any symptoms or signs. […]\n(§3) Peak expiratory flow rates are monitored every 30 minutes during food challenge for at least 2 hours after the last does or abatement of any symptoms or signs. […]"}, "[2]": {"system": "subjects with an allergy to peanut", "assay": "Oral peanut tolerization therapy with concomitant ketotifen fumarate, randomized double-blind placebo-controlled (Example 5)", "type": "in vivo, patients", "protocol": "A study is performed to evaluate the dose-related effects of ketotifen fumarate on the scope and severity of allergic signs and symptoms resulting from concomitant oral peanut tolerization therapy. The study also evaluates the effects of discontinuation of ketotifen therapy on the scope and severity of allergic signs and symptoms resulting from concomitant oral peanut tolerization therapy after 12 or 16 weeks, while oral peanut tolerization therapy is continued. The study also evaluates the effects of ketotifen therapy on the scope and severity of allergic signs and symptoms resulting from concomitant oral peanut tolerization therapy when ketotifen dosing is initiated after 12 weeks of oral peanut tolerization therapy. The study generally consists of screening, baseline, treatment, and post-treatment follow-up periods, and is randomized, double-blind, placebo-controlled, and in parallel groups.\nPatients selected are generally healthy subjects between the ages of 2 and 50 with an allergy to peanut which provokes signs and symptoms of an anaphylactic reaction. The patients may also have co-morbid atopic dermatitis and/or allergic rhinitis. If a patient is selected for the study, they are randomly assigned a treatment of 0.5 mg oral ketotifen fumarate, 2.0 mg oral ketotifen fumarate, or placebo (n=12 for each group).\nDuring the treatment period, patients receive ketotifen fumarate or placebo for one week prior to tolerization therapy. At week 1, oral peanut tolerization therapy is begun with peanut flour, and safety evaluations are performed. The oral dose of peanut flour is increased at weeks 3, 5, 7, 9, 11 and 13, and safety evaluations are performed at that time.\nAt week 13, half of the patients in each of the ketotifen groups are switched in a double-blind fashion to placebo, and subjects in the placebo treatment group are switched in a double-blind fashion to receive 2.0 mg oral ketotifen. Patients continue in the study for an additional 4 weeks. At weeks 15 and 17, the peanut flour dose is increased, and safety evaluations are performed. […]"}, "[3]": {"system": "patients with a history of peanut allergy", "assay": "Double-blind randomized oral food challenge with peanut flour (Example 1)", "type": "in vivo", "settings": "1 mg ketotifen orally twice daily vs placebo; oral food challenge at two, four and six weeks", "protocol": "as §1, with “hypersensitivity to an allergen, e.g., peanut, a” for “hypersensitivity to peanut, a”, “may not have taken systemic corticosteroids,” for “may not take systemic corticosteroids,”, “and anti-depressants prior to and throughout the study.” for “and anti-depressants during the study.”\nas §2, with “Base line spirometry, peak expiratory flow rates and continuous cardiac monitoring is established.” left out\nas §3"}, "[4]": {"system": "patients with a history of bee sting allergy", "assay": "Double-blind randomized dose-ranging bee venom challenge (Example 4)", "type": "in vivo", "settings": "0.5, 1 or 2 mg ketotifen orally twice daily vs placebo; bee venom challenge at two, four and six weeks", "protocol": "as §1, with “bee venom,” for “peanut,”, “bee sting” for “peanut”, “bee venom.” for “peanut.”\nBefore enrollment, threshold level for reactivity to bee venom allergen is confirmed by a screening double-blind, placebo-controlled bee venom challenge. […] Vital signs are checked, chest auscultation is performed, and peak expiratory flow rates are monitored and bee venom specific IgE level and basal tryptase level are measured every 30 minutes during the challenge and for at least 2 hours after the last dose or the abatement of any symptoms or signs. […] The wheal size is evaluated 15 min after application. […] Patients are closely monitored for any systemic reaction. […]"}, "[5]": {"settings": "patients initially receiving ketotifen, switched to placebo at week 13, final 4 weeks"}}, "data": [{"smiles": "CN1CCC(=C2c3ccccc3CC(=O)c3sccc32)CC1", "note": "[ketotifen]", "values": [{"measurement": "patients' tolerance to peanut upon oral ingestion (change from base line in log-transformed threshold dose of peanut flour that induced hypersensitivity)", "setting": "[1]", "result": "significantly increase"}, {"measurement": "amount of peanut flour that is well-tolerated", "setting": "[2]; 0.5 mg or 2.0 mg oral ketotifen fumarate vs placebo during oral peanut tolerization therapy", "result": "tolerate more peanut flour than patients in the placebo group"}, {"measurement": "escape therapy required, vs patients continuously receiving ketotifen", "setting": "[2]; [5]", "result": "require similar escape therapy"}, {"measurement": "escape therapy required, vs patients continuously receiving the placebo", "setting": "[2]; [5]", "result": "require less escape therapy"}, {"measurement": "patients' threshold sensitivity to peanut upon oral ingestion (change from base line in log-transformed threshold dose of peanut flour that induced hypersensitivity)", "setting": "[3]", "result": "significantly increase"}, {"measurement": "patients' tolerance to bee venom (change from base line in log-transformed threshold dose of bee venom that induced hypersensitivity)", "setting": "[4]", "result": "significantly increase"}]}]}
